Structures can show the parent of a compound that is named as a salt.
How the values were obtained:
Conditions in all cases: exposure time: 72 h
E21 [1] = patient-derived glioblastoma stem cells of mesenchymal subtype; assay: phenotypic distance (Euclidean, principal components) from DMSO controls (arbitrary units); higher = stronger morphological change
E31 [2] = patient-derived glioblastoma stem cells of proneural subtype; assay: as above
E28 [3] = patient-derived glioblastoma stem cells of classical subtype; assay: as above
FT3469 [4] = normal neural stem cell line; assay: as above
E13 [5] = patient-derived glioblastoma stem cells of classical subtype; assay: as above
E34 [6] = patient-derived glioblastoma stem cells of proneural subtype; assay: as above
E57 [7] = patient-derived glioblastoma stem cells of mesenchymal subtype; assay: as above
E21 [8] = assay: surviving fraction (nuclei count normalised to DMSO); higher = more cells surviving (less toxic)
E31 [9] = assay: as above
E28 [10] = assay: as above
FT3469 [11] = assay: as above
E13 [12] = assay: as above
E34 [13] = assay: as above
E57 [14] = assay: as above
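Wherever phenotypic distance (Euclidean, principal components) from DMSO controls is given: cell Painting imaging in 384-well plates, CellProfiler features reduced to at least 20 principal components, Euclidean distance versus same-plate DMSO vehicle wells (0.1% v/v), median over six images per well.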
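Wherever surviving fraction (nuclei count normalised to DMSO) is given: nuclei counted by high-content imaging of Hoechst-stained cells in laminin-coated 384-well plates, relative to 0.1% DMSO vehicle wells, with staurosporine as cell-death control.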

Work on `NC1CCN(c2nc3c(cc2F)c(=O)c(C(=O)O)cn3-c2ccc(F)cc2F)C1` (stereo not drawn) [Tosufloxacin hydrochloride] yielded a phenotypic distance (E21 [1]; 4.1 nM) of 0.748, a phenotypic distance (E21 [1]; 12.3 nM) of 0.836 and a phenotypic distance (E21 [1]; 37 nM) of 0.56. The phenotypic distance (E21 [1]; 111.1 nM) was 0.309, the phenotypic distance (E21 [1]; 333.3 nM) was 0.495 and the phenotypic distance (E21 [1]; 1000 nM) was 0.751. The phenotypic distance (E21 [1]; 3000 nM) was 0.725, the phenotypic distance (E31 [2]; 4.1 nM) was 0.809 and the phenotypic distance (E31 [2]; 12.3 nM) was 0.633. For the same molecule, the phenotypic distance (E31 [2]; 37 nM) was 0.706, the phenotypic distance (E31 [2]; 111.1 nM) was 0.608 and the phenotypic distance (E31 [2]; 333.3 nM) was 0.538. The phenotypic distance (E31 [2]; 1000 nM) was 0.815, the phenotypic distance (E31 [2]; 3000 nM) was 0.521 and the phenotypic distance (E28 [3]; 4.1 nM) was 3.44. For the same molecule, the phenotypic distance (E28 [3]; 12.3 nM) was 0.615, the phenotypic distance (E28 [3]; 37 nM) was 0.624 and the phenotypic distance (E28 [3]; 111.1 nM) was 0.684. For the same molecule, the phenotypic distance (E28 [3]; 333.3 nM) was 0.493, the phenotypic distance (E28 [3]; 1000 nM) was 0.455 and the phenotypic distance (E28 [3]; 3000 nM) was 0.886. The phenotypic distance (FT3469 [4]; 4.1 nM) was 0.676, the phenotypic distance (FT3469 [4]; 12.3 nM) was 0.401 and the phenotypic distance (FT3469 [4]; 37 nM) was 0.584. The phenotypic distance (FT3469 [4]; 111.1 nM) was 0.591, the phenotypic distance (FT3469 [4]; 333.3 nM) was 3.26 and the phenotypic distance (FT3469 [4]; 1000 nM) was 0.468. For the same molecule, the phenotypic distance (FT3469 [4]; 3000 nM) was 0.933, the phenotypic distance (E13 [5]; 4.1 nM) was 0.747 and the phenotypic distance (E13 [5]; 12.3 nM) was 0.689. For the same molecule, the phenotypic distance (E13 [5]; 37 nM) was 0.471, the phenotypic distance (E13 [5]; 111.1 nM) was 0.593 and the phenotypic distance (E13 [5]; 333.3 nM) was 0.883. The phenotypic distance (E13 [5]; 1000 nM) was 0.502, the phenotypic distance (E13 [5]; 3000 nM) was 0.704 and the phenotypic distance (E34 [6]; 4.1 nM) was 0.608. The phenotypic distance (E34 [6]; 12.3 nM) was 0.861, the phenotypic distance (E34 [6]; 37 nM) was 0.802 and the phenotypic distance (E34 [6]; 111.1 nM) was 0.784. It also gave a phenotypic distance (E34 [6]; 333.3 nM) of 0.625, a phenotypic distance (E34 [6]; 1000 nM) of 0.557 and a phenotypic distance (E34 [6]; 3000 nM) of 0.971. For the same molecule, the phenotypic distance (E57 [7]; 4.1 nM) was 0.751, the phenotypic distance (E57 [7]; 12.3 nM) was 0.527 and the phenotypic distance (E57 [7]; 37 nM) was 0.691. It also gave a phenotypic distance (E57 [7]; 111.1 nM) of 0.438, a phenotypic distance (E57 [7]; 333.3 nM) of 0.382 and a phenotypic distance (E57 [7]; 1000 nM) of 0.743. It also gave a phenotypic distance (E57 [7]; 3000 nM) of 0.801, a surviving fraction (E21 [8]; 4.1 nM) of 0.969 and a surviving fraction (E21 [8]; 12.3 nM) of 1.06. For the same molecule, the surviving fraction (E21 [8]; 37 nM) was 1.02, the surviving fraction (E21 [8]; 111.1 nM) was 0.964 and the surviving fraction (E21 [8]; 333.3 nM) was 0.988. It also gave a surviving fraction (E21 [8]; 1000 nM) of 0.989, a surviving fraction (E21 [8]; 3000 nM) of 0.906 and a surviving fraction (E31 [9]; 4.1 nM) of 0.78. It also gave a surviving fraction (E31 [9]; 12.3 nM) of 0.861, a surviving fraction (E31 [9]; 37 nM) of 0.987 and a surviving fraction (E31 [9]; 111.1 nM) of 0.892. The surviving fraction (E31 [9]; 333.3 nM) was 1.06, the surviving fraction (E31 [9]; 1000 nM) was 0.836 and the surviving fraction (E31 [9]; 3000 nM) was 0.849. It also gave a surviving fraction (E28 [10]; 4.1 nM) of 0.969, a surviving fraction (E28 [10]; 12.3 nM) of 1.18 and a surviving fraction (E28 [10]; 37 nM) of 0.9. It also gave a surviving fraction (E28 [10]; 111.1 nM) of 1.12, a surviving fraction (E28 [10]; 333.3 nM) of 0.975 and a surviving fraction (E28 [10]; 1000 nM) of 1.01. It also gave a surviving fraction (E28 [10]; 3000 nM) of 0.898, a surviving fraction (FT3469 [11]; 4.1 nM) of 0.927 and a surviving fraction (FT3469 [11]; 12.3 nM) of 0.952. The surviving fraction (FT3469 [11]; 37 nM) was 1.13, the surviving fraction (FT3469 [11]; 111.1 nM) was 0.908 and the surviving fraction (FT3469 [11]; 333.3 nM) was 0.964. For the same molecule, the surviving fraction (FT3469 [11]; 1000 nM) was 0.96, the surviving fraction (FT3469 [11]; 3000 nM) was 0.913 and the surviving fraction (E13 [12]; 4.1 nM) was 0.947. For the same molecule, the surviving fraction (E13 [12]; 12.3 nM) was 1.13, the surviving fraction (E13 [12]; 37 nM) was 0.977 and the surviving fraction (E13 [12]; 111.1 nM) was 1.05. For the same molecule, the surviving fraction (E13 [12]; 333.3 nM) was 1.01, the surviving fraction (E13 [12]; 1000 nM) was 1 and the surviving fraction (E13 [12]; 3000 nM) was 1.04. It also gave a surviving fraction (E34 [13]; 4.1 nM) of 0.948, a surviving fraction (E34 [13]; 12.3 nM) of 0.869 and a surviving fraction (E34 [13]; 37 nM) of 0.977. It also gave a surviving fraction (E34 [13]; 111.1 nM) of 0.985, a surviving fraction (E34 [13]; 333.3 nM) of 0.916 and a surviving fraction (E34 [13]; 1000 nM) of 1.03. For the same molecule, the surviving fraction (E34 [13]; 3000 nM) was 0.856, the surviving fraction (E57 [14]; 4.1 nM) was 1.03 and the surviving fraction (E57 [14]; 12.3 nM) was 1.03. For the same molecule, the surviving fraction (E57 [14]; 37 nM) was 1, the surviving fraction (E57 [14]; 111.1 nM) was 1.06 and the surviving fraction (E57 [14]; 333.3 nM) was 0.946. It also gave a surviving fraction (E57 [14]; 1000 nM) of 1.09 and a surviving fraction (E57 [14]; 3000 nM) of 0.903.

— the supplement of paper PMC13207355
